# According to patent US20190083455A1, “METHODS AND COMPOSITIONS FOR THE MODULATION OF BETA-ENDORPHIN LEVELS” (The General Hospital Corporation, priority 2014, published 2019):
# Where a name gives a salt, the structure may show the parent alone.
# Key:
# β-endorphin = experiment: Plasma β-endorphin radioimmunoassay in UV/mock irradiated mice; format: in vivo; settings: mice treated twice a week with Naloxone or Saline; daily UV or Mock irradiation
# Excerpt: Mice were dorsally shaved two days prior to the start of radiation exposure, then exposed to 50 mJ/cm^2/day of UVB, an empirically determined sub-erythematic dose, 5 days per week (Monday-Friday) for 6 weeks. If there were patches of fur re-growth, mice were re-shaved once every two weeks.
# For blood draws, mice were placed in a standard restrainer and tail vein blood was collected in EDTA microvette tubes containing 0.6TIU aprotinin. Mice underwent blood draws prior to the start of radiation exposure, once per week during the radiation exposure regimen, and once per week for two weeks following cessation of the UV regimen. Blood was drawn in the mornings prior to radiation exposure on Fridays.
# Tubes of collected blood were maintained on ice until centrifugation at 3500 RPM for 20 minutes at 4° C. Plasma was isolated and samples were stored at −80° C. until β-endorphin measurement. β-endorphin was quantified by radioimmunoassay (Phoenix Pharmaceuticals, Burlingame, Calif.).
# C57Bl/6 mice = experiment: Straub Tail measurement; format: in vivo; settings: 10 mg/kg ip, scored 15 minutes after injection; day 23 of the UV exposure regimen
# Procedure: Straub Tail measurement was performed as described (Bilbey et al., 1960). Scoring was on a scale of 0-2 according to the angle of elevation of the tail from the horizontal plane (0=tail relaxed and no elevation; 1=tail is rigid and elevated 1-10° from horizontal; 1.5=11-45° elevation and rigidity at the base of the tail; 2=46-90° elevation and rigidity at the base of the tail). At each time point, each mouse was scored every 10 seconds for 1 minute and the final score was the average of these six values. Mice undergoing the six-week UV exposure regimen or mock treatment were scored prior to the start of the regimen, once per week during the regimen, and once per week for 2 weeks following cessation of UV/mock treatment. On day 23 of the regimen, after weekly Straub Tail scoring, mice were injected (intraperitoneal (ip)) with either 10 mg/kg naloxone hydrochloride (Sigma, St. Louis, Mo.) or saline. Mice underwent Straub Tail scoring again 15 minutes following injection.
# Exogenous opioids produce a dose-dependent, μ-opioid receptor-mediated contraction of the sacrococcygeus dorsalis muscle at the tail base in rodents, resulting in rigidity and elevation of the tail, a phenomenon called “Straub Tail” (Bilbey et al., 1960). […]
smiles,measurement,setting,value
"C=CCN1CC[C@]23c4c5ccc(O)c4O[C@H]2C(=O)CC[C@@]3(O)[C@H]1C5 [naloxone, naloxone hydrochloride]",plasma β-endorphin,β-endorphin,no significant effect of Naloxone treatment within either group
same,Straub Tail score,C57Bl/6 mice,reversed the Straub Tail phenotype
